Data: the NIST ThermoML archive (doi:10.1021/acs.jced.5b00544)

Assay: mean ionic activity coefficient (dimensionless); mn = molality of the nth substance listed, in mol/kg
Conditions: 101 kPa, Liquid

[Cl-].[K+] [potassium chloride] + O
mean ionic activity coefficient
Conditions	273.15 K	283.15 K	293.15 K	303.15 K	313.15 K	323.15 K	333.15 K	343.15 K
m1 = 0.1	0.772	0.771	0.77	0.767	0.764	0.761	0.757	0.752
m1 = 0.2	0.719	0.719	0.719	0.716	0.714	0.71	0.705	0.699
m1 = 0.5	0.643	0.647	0.651	0.649	0.647	0.644	0.638	0.632
m1 = 1	0.581	0.592	0.602	0.602	0.603	0.601	0.596	0.588

[Cl-].[Na+] [sodium chloride] + O
mean ionic activity coefficient
Conditions	273.15 K	283.15 K	293.15 K	303.15 K	313.15 K	323.15 K	333.15 K	343.15 K	353.15 K
m1 = 0.1	0.781	0.78	0.779	0.777	0.774	0.77	0.766	0.761	0.752
m1 = 0.2	0.734	0.735	0.735	0.732	0.729	0.725	0.72	0.713	0.703
m1 = 0.25	0.719	0.72	0.721	0.718	0.715	0.711	0.706	0.699	0.688
m1 = 0.5	0.672	0.677	0.681	0.68	0.678	0.674	0.667	0.659	0.647
m1 = 0.7	0.651	0.658	0.665	0.666	0.664	0.66	0.653	0.644	0.633
m1 = 0.75	0.646	0.655	0.662	0.663	0.662	0.658	0.651	0.641	0.631
m1 = 1	0.629	0.641	0.653	0.655	0.655	0.652	0.644	0.633	0.624
